In series [1] the target is Tyrosine-protein kinase ITK/TSK (Homo sapiens) (UniProt Q08881). Kind of series: Inhibition of human ITK assessed as residual activity at 30 uM relative to control.
The test system of series [2] is Mus musculus. Nature of the series: Antiarthritic activity in collagen-induced rheumatoid arthritis DBA/1 mouse model assessed as reduction in clinical score at 15 mg/kg, po BID administered for 14 days starting from 7 days before immunization to 21 days after immunization and measured on day 41 post immunization (reference value: 5.75). It is filed as functional. Conditions: time 14 day.

Series [3] in a line: Volume of distribution at steady state in Sprague-Dawley rat at 1 mg/kg, iv measured for 24 hrs by LC-MS/MS analysis. The class given is ADME, organism-based. The note with it: in vivo, read-out: Vdss.
In series [4] the target is Vascular endothelial growth factor receptor 2 (Homo sapiens) (UniProt P35968). Kind of series: Inhibition of human KDR assessed as residual activity at 30 uM relative to control.
Sequence of Vascular endothelial growth factor receptor 2 (Homo sapiens) (P35968 whole entry): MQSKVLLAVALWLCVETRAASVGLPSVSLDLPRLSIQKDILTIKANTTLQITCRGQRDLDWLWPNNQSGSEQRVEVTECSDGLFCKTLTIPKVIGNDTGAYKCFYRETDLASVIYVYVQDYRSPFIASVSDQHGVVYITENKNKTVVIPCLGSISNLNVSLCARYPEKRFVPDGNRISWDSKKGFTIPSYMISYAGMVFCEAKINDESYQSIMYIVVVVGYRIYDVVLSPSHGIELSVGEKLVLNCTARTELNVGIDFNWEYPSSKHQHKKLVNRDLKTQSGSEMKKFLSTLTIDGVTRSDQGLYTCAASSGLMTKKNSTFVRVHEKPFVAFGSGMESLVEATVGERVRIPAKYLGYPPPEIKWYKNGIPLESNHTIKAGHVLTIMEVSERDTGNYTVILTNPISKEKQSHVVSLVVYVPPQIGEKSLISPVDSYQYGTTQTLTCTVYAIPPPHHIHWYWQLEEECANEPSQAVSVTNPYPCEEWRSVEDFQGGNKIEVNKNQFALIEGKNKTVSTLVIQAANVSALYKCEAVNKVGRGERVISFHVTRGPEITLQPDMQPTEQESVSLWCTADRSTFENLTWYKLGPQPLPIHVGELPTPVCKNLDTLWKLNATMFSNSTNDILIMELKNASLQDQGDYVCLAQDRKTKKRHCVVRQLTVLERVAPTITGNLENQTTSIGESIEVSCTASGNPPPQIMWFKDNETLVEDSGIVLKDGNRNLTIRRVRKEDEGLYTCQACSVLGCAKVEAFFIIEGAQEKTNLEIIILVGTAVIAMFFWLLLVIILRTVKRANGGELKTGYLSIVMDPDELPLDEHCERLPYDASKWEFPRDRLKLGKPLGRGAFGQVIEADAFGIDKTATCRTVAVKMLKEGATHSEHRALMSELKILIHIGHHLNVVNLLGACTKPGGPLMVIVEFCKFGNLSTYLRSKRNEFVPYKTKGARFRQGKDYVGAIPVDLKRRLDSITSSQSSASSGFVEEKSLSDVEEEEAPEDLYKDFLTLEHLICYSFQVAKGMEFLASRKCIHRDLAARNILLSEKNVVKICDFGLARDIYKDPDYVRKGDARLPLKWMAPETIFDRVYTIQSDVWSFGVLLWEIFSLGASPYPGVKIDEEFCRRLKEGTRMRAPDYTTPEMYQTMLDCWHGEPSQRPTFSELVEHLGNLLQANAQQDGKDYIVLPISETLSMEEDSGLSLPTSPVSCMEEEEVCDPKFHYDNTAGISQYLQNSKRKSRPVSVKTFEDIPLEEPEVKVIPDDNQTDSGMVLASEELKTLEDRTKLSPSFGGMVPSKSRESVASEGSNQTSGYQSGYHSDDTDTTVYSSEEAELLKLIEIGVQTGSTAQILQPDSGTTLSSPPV
Series [5] has as its target RAC-alpha serine/threonine-protein kinase (Homo sapiens) (UniProt P31749). Nature of the series: Inhibition of human PKBalpha assessed as residual activity at 30 uM relative to control.
In series [6] the test system is Rattus norvegicus. Kind of series: Antiarthritic activity in adjuvant-induced arthritis rat model assessed as recovery of body weight at 1 to 30 mg/kg, po administered twice a day for 14 days starting from day 13 to 27 post immunization and measured every 3 days a week. The note with it: dose 1-30 mg/kg, time 14.0 day. The class given is functional, organism-based.

For series [7], the target named is Insulin-like growth factor 1 receptor (Homo sapiens) (UniProt P08069). Kind of series: Inhibition of human IGF1R assessed as residual activity at 30 uM relative to control.
Series [8] addresses Casein kinase I (Homo sapiens) (UniProt Q9HCP0+P78368+P48730+P49674+P48729). Kind of series: Inhibition of CK1 (unknown origin) assessed as residual activity at 30 uM relative to control. It is filed as protein assay.
Series [9] has as its target Serine/threonine-protein kinase Chk1 (Homo sapiens) (UniProt O14757). Kind of series: Inhibition of human CHK1 assessed as residual activity at 30 uM relative to control.
Series [10] concerns the target Serine/threonine-protein kinase mTOR (Homo sapiens) (UniProt P42345). Kind of series: Inhibition of human mTOR assessed as residual activity at 30 uM relative to control.
In series [11] the target is Interleukin-1 receptor-associated kinase 4 (Homo sapiens) (UniProt Q9NWZ3). Kind of series: Inhibition of human IRAK4 assessed as residual activity at 30 uM relative to control.
Sequence of Interleukin-1 receptor-associated kinase 4 (Homo sapiens) (Q9NWZ3 whole entry): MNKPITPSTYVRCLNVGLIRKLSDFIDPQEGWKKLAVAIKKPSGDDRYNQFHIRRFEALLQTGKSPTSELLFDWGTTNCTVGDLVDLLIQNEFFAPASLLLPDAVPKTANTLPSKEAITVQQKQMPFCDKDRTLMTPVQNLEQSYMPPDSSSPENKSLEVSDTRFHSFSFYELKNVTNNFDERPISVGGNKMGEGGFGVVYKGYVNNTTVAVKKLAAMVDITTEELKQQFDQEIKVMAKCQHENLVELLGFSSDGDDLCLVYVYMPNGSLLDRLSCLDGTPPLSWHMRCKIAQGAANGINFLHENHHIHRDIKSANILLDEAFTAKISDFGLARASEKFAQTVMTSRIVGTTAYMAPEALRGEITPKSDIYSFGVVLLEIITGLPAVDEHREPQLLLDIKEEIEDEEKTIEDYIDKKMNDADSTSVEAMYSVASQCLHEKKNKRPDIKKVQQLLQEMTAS
Series [12] concerns the target ALK tyrosine kinase receptor (Homo sapiens) (UniProt Q9UM73). Kind of series: Inhibition of human ALK assessed as residual activity at 30 uM relative to control.
The target in series [13] is Calcium/calmodulin-dependent protein kinase type II subunit alpha (Homo sapiens) (UniProt Q9UQM7). Kind of series: Inhibition of human CAMKIIalpha assessed as residual activity at 30 uM relative to control.
Series [14] is described as follows: Toxicity in rat assessed as reduction in food intake at 10 mg/kg/day, po administered via gavage once a day pretreated for 9 weeks prior to co-cage and measured on day 74. The note with it: in vivo, 1776 h, time 74 day. It is filed as organism-based. Also noted: scale not given: the % may be the effect or the level left.
Series [15] has as its target Tyrosine-protein kinase Lck (Homo sapiens) (UniProt P06239). Kind of series: Inhibition of human LCK assessed as residual activity at 30 uM relative to control.
For series [16], the target named is Glycogen synthase kinase-3 beta (Homo sapiens) (UniProt P49841). Kind of series: Inhibition of human GSK3beta assessed as residual activity at 30 uM relative to control.
Sequence of Glycogen synthase kinase-3 beta (Homo sapiens) (P49841 whole entry, looked up): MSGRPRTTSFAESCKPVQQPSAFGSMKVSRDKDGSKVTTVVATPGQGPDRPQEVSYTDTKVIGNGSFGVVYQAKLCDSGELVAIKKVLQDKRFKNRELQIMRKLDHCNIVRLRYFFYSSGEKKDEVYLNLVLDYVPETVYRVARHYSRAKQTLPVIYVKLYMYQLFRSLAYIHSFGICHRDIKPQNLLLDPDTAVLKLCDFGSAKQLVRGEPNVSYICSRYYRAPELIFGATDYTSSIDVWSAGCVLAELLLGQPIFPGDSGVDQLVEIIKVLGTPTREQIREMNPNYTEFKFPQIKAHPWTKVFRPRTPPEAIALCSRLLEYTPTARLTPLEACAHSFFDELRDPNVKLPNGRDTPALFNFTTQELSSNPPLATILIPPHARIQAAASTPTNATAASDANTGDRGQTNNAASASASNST

SMILES strings stand for the structures. Active and inactive are the calls of the source. No cut-off for these calls is given here.

Sequence of ALK tyrosine kinase receptor (Homo sapiens) (Q9UM73 19-1620 limits assumed): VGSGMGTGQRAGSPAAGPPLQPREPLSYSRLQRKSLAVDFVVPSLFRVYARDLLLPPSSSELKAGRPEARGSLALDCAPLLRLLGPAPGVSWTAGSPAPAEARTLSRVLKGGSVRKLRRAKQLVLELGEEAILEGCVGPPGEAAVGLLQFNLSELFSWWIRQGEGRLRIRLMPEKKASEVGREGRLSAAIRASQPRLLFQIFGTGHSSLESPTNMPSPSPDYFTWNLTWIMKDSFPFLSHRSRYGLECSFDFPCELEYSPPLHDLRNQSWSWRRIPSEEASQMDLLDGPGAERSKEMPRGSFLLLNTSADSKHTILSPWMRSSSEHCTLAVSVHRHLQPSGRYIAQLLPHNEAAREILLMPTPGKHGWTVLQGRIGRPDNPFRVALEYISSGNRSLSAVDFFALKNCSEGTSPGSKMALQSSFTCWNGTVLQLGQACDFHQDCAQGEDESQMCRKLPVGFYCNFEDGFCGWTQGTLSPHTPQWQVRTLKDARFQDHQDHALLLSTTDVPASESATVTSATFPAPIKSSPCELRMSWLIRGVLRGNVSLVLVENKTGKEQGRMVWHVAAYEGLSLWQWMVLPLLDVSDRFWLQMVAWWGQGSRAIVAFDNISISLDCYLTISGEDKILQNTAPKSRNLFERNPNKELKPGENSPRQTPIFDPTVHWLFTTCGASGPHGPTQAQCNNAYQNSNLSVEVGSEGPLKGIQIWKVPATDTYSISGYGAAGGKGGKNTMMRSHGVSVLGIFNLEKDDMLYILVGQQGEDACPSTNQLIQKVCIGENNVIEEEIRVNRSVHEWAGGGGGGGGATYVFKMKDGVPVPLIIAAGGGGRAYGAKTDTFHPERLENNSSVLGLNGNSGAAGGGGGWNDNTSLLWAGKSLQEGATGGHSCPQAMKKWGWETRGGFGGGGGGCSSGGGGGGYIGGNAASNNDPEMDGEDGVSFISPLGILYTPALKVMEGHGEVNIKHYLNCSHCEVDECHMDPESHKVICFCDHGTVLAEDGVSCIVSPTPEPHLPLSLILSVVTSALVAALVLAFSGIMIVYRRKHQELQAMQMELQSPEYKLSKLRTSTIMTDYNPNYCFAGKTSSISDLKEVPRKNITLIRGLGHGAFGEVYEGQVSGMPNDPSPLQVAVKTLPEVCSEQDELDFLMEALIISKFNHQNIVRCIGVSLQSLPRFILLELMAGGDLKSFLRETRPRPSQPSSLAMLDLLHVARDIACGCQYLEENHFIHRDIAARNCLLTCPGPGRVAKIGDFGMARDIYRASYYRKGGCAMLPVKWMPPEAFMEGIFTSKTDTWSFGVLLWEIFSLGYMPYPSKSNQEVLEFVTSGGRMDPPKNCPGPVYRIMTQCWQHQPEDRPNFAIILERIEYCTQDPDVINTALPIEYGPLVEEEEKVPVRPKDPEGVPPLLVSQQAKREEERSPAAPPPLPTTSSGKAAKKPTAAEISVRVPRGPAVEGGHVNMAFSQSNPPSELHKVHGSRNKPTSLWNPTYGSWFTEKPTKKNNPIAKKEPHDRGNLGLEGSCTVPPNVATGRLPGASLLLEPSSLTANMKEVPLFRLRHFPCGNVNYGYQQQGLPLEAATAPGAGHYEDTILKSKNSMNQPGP
Sequence of Tyrosine-protein kinase ITK/TSK (Homo sapiens) (Q08881 whole entry): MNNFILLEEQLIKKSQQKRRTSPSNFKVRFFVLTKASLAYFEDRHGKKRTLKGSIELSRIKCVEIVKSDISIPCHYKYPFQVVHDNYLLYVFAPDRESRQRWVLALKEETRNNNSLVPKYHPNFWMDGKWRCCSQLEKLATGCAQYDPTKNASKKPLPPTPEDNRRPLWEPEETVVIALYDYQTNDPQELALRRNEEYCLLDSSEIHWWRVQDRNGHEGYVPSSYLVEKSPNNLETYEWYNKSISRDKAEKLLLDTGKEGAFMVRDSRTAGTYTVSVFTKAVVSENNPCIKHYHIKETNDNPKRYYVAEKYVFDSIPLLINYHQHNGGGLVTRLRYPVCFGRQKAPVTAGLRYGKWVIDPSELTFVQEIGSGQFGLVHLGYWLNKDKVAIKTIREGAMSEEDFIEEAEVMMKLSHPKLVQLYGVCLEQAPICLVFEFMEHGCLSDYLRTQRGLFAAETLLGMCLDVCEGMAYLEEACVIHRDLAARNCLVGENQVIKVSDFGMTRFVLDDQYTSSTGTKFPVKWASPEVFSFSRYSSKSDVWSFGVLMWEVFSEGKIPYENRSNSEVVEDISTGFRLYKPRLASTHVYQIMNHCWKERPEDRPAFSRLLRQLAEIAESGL
Sequence of Tyrosine-protein kinase Lck (Homo sapiens) (P06239 2-509 limits assumed): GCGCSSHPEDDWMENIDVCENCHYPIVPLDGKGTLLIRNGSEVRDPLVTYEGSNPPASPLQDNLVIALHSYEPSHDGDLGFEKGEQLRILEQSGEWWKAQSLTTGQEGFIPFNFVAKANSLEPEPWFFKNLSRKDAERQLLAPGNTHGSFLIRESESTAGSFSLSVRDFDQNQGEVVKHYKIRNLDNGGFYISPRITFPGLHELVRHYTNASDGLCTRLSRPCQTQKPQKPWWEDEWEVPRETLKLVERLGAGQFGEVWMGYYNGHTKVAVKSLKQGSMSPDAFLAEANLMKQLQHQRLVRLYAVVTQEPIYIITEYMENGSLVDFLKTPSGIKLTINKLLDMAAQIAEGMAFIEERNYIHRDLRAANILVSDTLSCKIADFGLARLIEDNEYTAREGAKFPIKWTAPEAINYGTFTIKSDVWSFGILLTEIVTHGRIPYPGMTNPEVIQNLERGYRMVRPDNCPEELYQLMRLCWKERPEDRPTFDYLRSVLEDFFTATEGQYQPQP

In the case of `O=C(Nc1nc2cccc(C3CCC4(CC3)CN(C(=O)[C@@H]3CC3(F)F)C4)n2n1)C1CC1`, the Activity was 87% in series [1]; 1.5 in series [2]; 31% in series [4]; 104% in series [5]; 129% in series [7]; 102% in [8]. The Activity is 99% in [9]; 104% in [10]; 106% in [11]; 101% in series [12]; 88% in series [13]; 6.1% in series [14]. Besides, the Activity in series [15] stood at 74%; in [16], 93%. The Vd in [3] worked out at 1.81 L/kg. Moreover, the outcome in series [6] was Active.

The values are drawn from ChEMBL document CHEMBL5150077, “Identification of TUL01101: A Novel Potent and Selective JAK1 Inhibitor for the Treatment of Rheumatoid Arthritis” (J Med Chem, 2022).
